# Laboratory results reported in ChEMBL document CHEMBL4043225, “Identification of potent, nonabsorbable agonists of the calcium-sensing receptor for GI-specific administration” (Bioorg Med Chem Lett, 2017).
# How the values were obtained:
# [1] = biological target: T1, Extracellular calcium-sensing receptor (Homo sapiens) (UniProt P41180); test: (§1) Agonist activity at human CaSR expressed in HEK293 cells assessed as increase in intracellular calcium mobilization by fluo-4AM dye based FLIPR assay; format: functional, cell-based
# T1 sequence (whole entry): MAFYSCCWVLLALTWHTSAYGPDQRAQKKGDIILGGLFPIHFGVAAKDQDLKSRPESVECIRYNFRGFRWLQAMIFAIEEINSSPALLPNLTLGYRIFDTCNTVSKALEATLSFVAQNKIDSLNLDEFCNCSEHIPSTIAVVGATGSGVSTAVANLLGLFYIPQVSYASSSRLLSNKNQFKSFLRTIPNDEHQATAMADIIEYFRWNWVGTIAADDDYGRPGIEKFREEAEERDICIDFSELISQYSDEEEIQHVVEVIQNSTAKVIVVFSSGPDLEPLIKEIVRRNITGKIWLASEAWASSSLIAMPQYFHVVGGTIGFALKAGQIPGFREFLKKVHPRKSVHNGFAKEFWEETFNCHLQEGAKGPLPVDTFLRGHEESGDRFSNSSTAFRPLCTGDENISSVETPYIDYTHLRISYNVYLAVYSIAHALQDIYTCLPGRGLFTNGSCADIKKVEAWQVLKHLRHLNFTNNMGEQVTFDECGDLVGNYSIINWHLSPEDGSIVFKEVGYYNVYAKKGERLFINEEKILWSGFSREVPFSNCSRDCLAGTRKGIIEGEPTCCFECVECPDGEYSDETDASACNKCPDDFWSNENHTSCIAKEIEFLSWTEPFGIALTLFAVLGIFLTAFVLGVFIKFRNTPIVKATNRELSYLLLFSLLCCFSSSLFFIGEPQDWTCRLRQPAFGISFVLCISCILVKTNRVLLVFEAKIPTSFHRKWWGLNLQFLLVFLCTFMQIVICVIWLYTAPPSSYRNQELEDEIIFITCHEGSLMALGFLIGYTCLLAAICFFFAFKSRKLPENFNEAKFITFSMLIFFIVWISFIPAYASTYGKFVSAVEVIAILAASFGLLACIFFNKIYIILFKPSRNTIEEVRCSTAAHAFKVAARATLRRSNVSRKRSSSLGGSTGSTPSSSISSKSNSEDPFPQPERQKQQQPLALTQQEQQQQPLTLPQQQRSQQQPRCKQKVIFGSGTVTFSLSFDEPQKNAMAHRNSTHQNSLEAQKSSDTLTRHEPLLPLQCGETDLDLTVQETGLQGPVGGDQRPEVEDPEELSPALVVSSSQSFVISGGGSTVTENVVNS
# [2] = biological target: T2, Extracellular calcium-sensing receptor (Homo sapiens, UniProt P41180); test: as §1; format: functional, cell-based
# T2 sequence (P41180 whole entry): T1 sequence (whole entry)
# [3] = Half-life in Sprague-Dawley rat cecal homogenates at 10 uM by LC-MS/MS analysis; format: ADME, tissue-based, Caecum
# [4] = Drug recovery in CD rat feces at 30 mg/kg, po administered via gavage measured by LC-MS/MS analysis; format: ADME, organism-based; details: read-out: Drug recovery
# [5] = Cmax in CD rat portal vein at 30 mg/kg, po administered via gavage; format: ADME, organism-based; set-up: dose 30 mg/kg, route oral
# [6] = Cmax in CD rat systemic circulation at 30 mg/kg, po administered via gavage; format: ADME, organism-based; set-up: dose 30 mg/kg, route oral
# [7] = AUC in CD rat systemic circulation at 10 mg/kg, po administered via gavage; format: ADME, organism-based
# [8] = Protein binding in CD rat plasma at 10 mg/kg, administered via gavage; format: ADME, organism-based; details: po, read-out: PPB (converted)
# Rattus norvegicus [9] = test: Unbound Cmax in CD rat portal vein at 10 mg/kg, po administered via gavage; format: ADME, organism-based; details: in vivo
# Rattus norvegicus [10] = test: Unbound Cmax in CD rat systemic circulation at 10 mg/kg, po administered via gavage; format: ADME, organism-based; details: in vivo
# [11] = biological target: T3, Extracellular calcium-sensing receptor (Mus musculus, UniProt Q9QY96); test: (§2) Agonist activity at mouse CaSR expressed in HEK293 cells assessed as increase in intracellular calcium mobilization by fluo-4AM dye based FLIPR assay; format: functional, cell-based
# T3 sequence (Q9QY96 whole entry): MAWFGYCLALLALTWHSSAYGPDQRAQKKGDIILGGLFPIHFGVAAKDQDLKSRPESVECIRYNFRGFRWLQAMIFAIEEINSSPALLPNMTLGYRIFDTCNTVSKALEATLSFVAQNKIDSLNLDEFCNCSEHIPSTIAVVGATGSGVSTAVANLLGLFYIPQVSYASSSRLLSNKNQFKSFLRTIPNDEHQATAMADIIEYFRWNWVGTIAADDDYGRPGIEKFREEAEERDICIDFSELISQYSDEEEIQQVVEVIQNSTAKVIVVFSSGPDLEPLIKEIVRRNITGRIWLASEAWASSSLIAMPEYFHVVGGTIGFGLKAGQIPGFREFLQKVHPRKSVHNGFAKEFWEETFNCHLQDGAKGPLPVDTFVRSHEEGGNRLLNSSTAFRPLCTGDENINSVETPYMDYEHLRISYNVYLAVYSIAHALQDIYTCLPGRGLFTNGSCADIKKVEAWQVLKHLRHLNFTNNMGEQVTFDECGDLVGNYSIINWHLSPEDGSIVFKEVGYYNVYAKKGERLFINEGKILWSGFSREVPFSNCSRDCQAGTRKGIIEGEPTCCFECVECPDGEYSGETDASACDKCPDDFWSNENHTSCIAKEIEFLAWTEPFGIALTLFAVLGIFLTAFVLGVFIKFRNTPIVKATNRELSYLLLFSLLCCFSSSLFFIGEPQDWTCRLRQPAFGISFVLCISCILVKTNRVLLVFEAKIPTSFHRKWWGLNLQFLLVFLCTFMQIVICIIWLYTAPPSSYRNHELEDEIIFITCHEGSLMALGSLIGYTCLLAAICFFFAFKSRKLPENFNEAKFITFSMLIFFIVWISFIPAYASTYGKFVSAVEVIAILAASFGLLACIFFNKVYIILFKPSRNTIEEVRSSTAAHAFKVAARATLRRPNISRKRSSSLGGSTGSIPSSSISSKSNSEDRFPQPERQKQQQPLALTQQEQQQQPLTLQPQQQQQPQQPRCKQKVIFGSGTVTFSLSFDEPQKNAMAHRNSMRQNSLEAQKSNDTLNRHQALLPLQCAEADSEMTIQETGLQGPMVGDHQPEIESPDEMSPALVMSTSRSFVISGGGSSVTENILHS
# [12] = biological target: T4, Extracellular calcium-sensing receptor (Mus musculus) (UniProt Q9QY96); test: as §2; format: functional, cell-based
# T4 sequence (whole entry): T3 sequence (Q9QY96 whole entry)
# [13] = Aqueous solubility of the compound in FESSIF; format: physicochemical
# [14] = Aqueous solubility of the compound in FASSIF; format: physicochemical
# [15] = Aqueous solubility of the compound in SGF; format: physicochemical
# [16] = AUC in CD rat portal vein at 10 mg/kg, po administered via gavage; format: ADME, organism-based
# [17] = biological target: T5, Extracellular calcium-sensing receptor (Rattus norvegicus) (UniProt P48442); test: (§3) Agonist activity at rat CaSR expressed in HEK293 cells assessed as increase in intracellular calcium mobilization by fluo-4AM dye based FLIPR assay; format: functional, cell-based
# T5 sequence (whole entry): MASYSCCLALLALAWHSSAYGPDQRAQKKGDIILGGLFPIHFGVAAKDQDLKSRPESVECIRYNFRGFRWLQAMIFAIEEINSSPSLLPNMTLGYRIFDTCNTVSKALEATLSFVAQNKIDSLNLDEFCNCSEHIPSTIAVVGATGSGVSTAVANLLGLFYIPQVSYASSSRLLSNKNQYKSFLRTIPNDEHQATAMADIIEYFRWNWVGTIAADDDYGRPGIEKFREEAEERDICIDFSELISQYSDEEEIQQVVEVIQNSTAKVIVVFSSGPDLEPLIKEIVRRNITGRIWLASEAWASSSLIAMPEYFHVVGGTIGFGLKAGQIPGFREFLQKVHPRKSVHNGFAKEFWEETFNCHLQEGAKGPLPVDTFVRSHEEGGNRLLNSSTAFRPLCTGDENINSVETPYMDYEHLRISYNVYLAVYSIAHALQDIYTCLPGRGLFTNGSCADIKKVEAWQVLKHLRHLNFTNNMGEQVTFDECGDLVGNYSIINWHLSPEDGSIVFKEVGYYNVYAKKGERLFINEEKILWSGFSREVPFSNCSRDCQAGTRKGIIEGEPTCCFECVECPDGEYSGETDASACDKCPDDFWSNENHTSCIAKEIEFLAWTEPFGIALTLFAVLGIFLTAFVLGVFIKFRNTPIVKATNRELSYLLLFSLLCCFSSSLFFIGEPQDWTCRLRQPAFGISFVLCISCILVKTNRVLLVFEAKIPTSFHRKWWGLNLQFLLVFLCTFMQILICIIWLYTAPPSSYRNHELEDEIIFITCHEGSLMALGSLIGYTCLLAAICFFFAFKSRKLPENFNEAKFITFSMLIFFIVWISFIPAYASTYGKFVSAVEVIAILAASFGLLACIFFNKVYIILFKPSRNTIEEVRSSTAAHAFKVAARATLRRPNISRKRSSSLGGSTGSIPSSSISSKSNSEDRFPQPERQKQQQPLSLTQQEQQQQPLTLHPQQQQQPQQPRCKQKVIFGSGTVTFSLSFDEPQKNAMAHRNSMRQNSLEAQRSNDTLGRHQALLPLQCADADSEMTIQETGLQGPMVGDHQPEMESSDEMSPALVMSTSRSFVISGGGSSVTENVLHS
# [18] = biological target: T6, Extracellular calcium-sensing receptor (Rattus norvegicus, UniProt P48442); test: as §3; format: functional, cell-based
# T6 sequence (P48442 whole entry): T5 sequence (whole entry)
# [19] = Cmax in CD rat systemic circulation at 50 mg/kg, po administered via gavage; format: ADME, organism-based; set-up: dose 50 mg/kg, route oral
# [20] = Cmax in CD rat portal vein at 50 mg/kg, po administered via gavage; format: ADME, organism-based; set-up: dose 50 mg/kg, route oral
SMILES,%max [1],EC50 ([2]; read-out: pEC50 (converted)),half-life at 10 µM [3],further results
C[C@@H](N[C@H]1CCN(c2ccc(C(=O)NCCn3cnc(C(=O)O)c3C(=O)O)cc2)C1)c1cccc2ccccc12,96%,5.01 nM,468 min,dose excreted [4]: 54%; Cmax [5]: 6 ng/mL; Cmax [6]: < 4 ng/mL
C[C@@H](N[C@H]1CCN(c2ccc(C(=O)N[C@H](CC(=O)O)C(=O)O)cc2)C1)c1cccc2ccccc12,79%,398 nM,546 min,dose excreted [4]: 65%; Cmax [5]: 12 ng/mL; Cmax [6]: 9 ng/mL
C[C@@H](N[C@H]1CCN(c2ccc(C(=O)NC(CO)(CO)CO)cc2)C1)c1cccc2ccccc12,80%,39.8 nM,> 720 min,
C[C@@H](N[C@H]1CCN(c2ccc(C(=O)NCCCCNC(CO)(CO)CO)cc2)C1)c1cccc2ccccc12,92%,15.8 nM,480 min,Cmax [5]: 540 ng/mL; Cmax [6]: 440 ng/mL
C[C@@H](N[C@H]1CCN(c2ccc(C(=O)NCCCN3CCC(C(=O)O)CC3)cc2)C1)c1cccc2ccccc12,84 to 93%,,> 720 min,EC50 ([2]; read-out: EC50): 50 nM; AUC [7]: 266 ng·h/mL; fraction unbound [8]: 0.07; fCmax (Rattus norvegicus [9]): 7 nM; fCmax (Rattus norvegicus [10]): 3 ng/mL; dose excreted [4]: 86.3%; EC50 [11]: 251 nM; %max [12]: 62%; solubility [13]: > 1000 µg/mL; solubility [14]: > 1000 µg/mL; solubility [15]: > 1000 µg/mL; AUC [16]: 265 ng·h/mL; %max [17]: 66%; EC50 [18]: 316 nM; Cmax [5]: 57 ng/mL; Cmax [6]: 48 ng/mL
C[C@@H](N[C@H]1CCN(c2ccc(C(=O)NCC[N+](C)(C)C)cc2)C1)c1cccc2ccccc12.[Cl-],83%,126 nM,> 720 min,Cmax [19]: 154 ng/mL; Cmax [20]: 164 ng/mL
C[C@@H](N[C@H]1CCN(c2ccc(C(=O)N[C@H](CCCCN)C(=O)O)cc2)C1)c1cccc2ccccc12,96%,100 nM,258 min,
C[C@@H](N[C@H]1CCN(c2ccc(S(=O)(=O)NCCn3cnc(C(=O)O)c3C(=O)O)cc2)C1)c1cccc2ccccc12,127%,7.94 nM,,
C[C@@H](N[C@H]1CCN(c2ccc(C(=O)NCCNC(CO)(CO)CO)cc2)C1)c1cccc2ccccc12,101%,7.94 nM,204 min,

# Now from value to compound, other results behind:
%max [1],EC50 ([2]; read-out: pEC50 (converted)),half-life at 10 µM [3],SMILES,further results
84%,158 nM,> 720 min,C[C@@H](N[C@H]1CCN(c2ccc(C(=O)O)cc2)C1)c1cccc2ccccc12,
75%,12.6 nM,,C[C@@H](N[C@H]1CCN(c2ccc(C(=O)NCCN)cc2)C1)c1cccc2ccccc12,
74%,501 nM,630 min,C[C@@H](N[C@H]1CCN(c2ccc(S(=O)(=O)NC(=O)CCC(=O)O)cc2)C1)c1cccc2ccccc12,
69%,79.4 nM,,C[C@@H](N[C@H]1CCN(c2ccc(C(=O)NCC(=O)O)cc2)C1)c1cccc2ccccc12,
87%,20 nM,> 720 min,C[C@@H](N[C@H]1CCN(c2ccc(S(N)(=O)=O)cc2)C1)c1cccc2ccccc12,
79%,1580 nM,,C[C@@H](N[C@H]1CCN(c2ccc(S(=O)(=O)NC(=O)CC(=O)O)cc2)C1)c1cccc2ccccc12,
84%,12.6 nM,,C[C@@H](N[C@H]1CCN(c2ccc(S(=O)(=O)NCCN(C)C)cc2)C1)c1cccc2ccccc12,
83%,39.8 nM,> 720 min,C[C@@H](N[C@H]1CCN(c2ccc(S(=O)(=O)NCC(=O)O)cc2)C1)c1cccc2ccccc12,Cmax [19]: 317 ng/mL; Cmax [20]: 1120 ng/mL
70%,3160 nM,,C[C@@H](N[C@H]1CCN(c2ccc(P(=O)(O)O)cc2)C1)c1cccc2ccccc12,
85%,39.8 nM,48 min,C[C@@H](N[C@H]1CCN(c2ccc(C(=O)NCCS(=O)(=O)O)cc2)C1)c1cccc2ccccc12,
